From patent US20150175655A1 (priority 2012, published 2015)

Target: T1, NS3 genotype 1b protease (Hepatitis C virus genotype 1b, UniProt Q9WMX2, E1202G)
T1 construct: Purified NS3 protease domain (amino acids 1-181) of the genotype 1b and 3a virus were generated as above; K3 hexahistidine tag (N); rTEV protease cleavage site (N); made in house; host or cells: E. coli BL21AI, pET28 vector p28-N6H-Tev-NS3(181)1b
Assay: Ki determination, NS3 protease genotype 1b (fluorogenic depsipeptide substrate)
Assay type: biochemical
Details: not given
Text: The coding sequence of the genotype 1b (con-1 strain) HCV NS3 protease domain was PCR amplified from a plasmid encoding the I389luc-ubi-neo/NS3-3′/ET replicon (Reblikon, Mainz, Germany). The 5′-PCR primer was designed to encode an N-terminal K3 hexahistidine tag and to insert an in-frame recombinant Tobacco Etch virus (rTEV) protease cleavage site into the NS3 coding sequence. The resulting DNA fragment was cloned into the pET28 protein expression vector (Invitrogen, Carlsbad, Calif.) yielding the p28-N6H-Tev-NS3(181)1b.
BL21AI bacteria (Invitrogen, Carlsbad, Calif.) were transformed with genotype 1b or 3 NS3 expression vectors and used to inoculate a 20 L fermentation vessel (Sartorius BBI System Inc., Bethlehem, Pa.), containing 18 L of fresh 2YT medium supplemented with 50 μg/mL kanamycin. When cell densities reached an OD600 of 1, the temperature of the cultures was reduced from 37° C. to 28° C. and induction was immediately initiated by the addition of 30 μM ZnSO4, 14 mM L-arabinose and 1 mM Isopropyl β-D-thiogalactoside (IPTG) final concentrations. Cells were harvested by centrifugation four hours post-induction and were stored as frozen pellets at −80° C. prior to NS3 protein purification.
Cell pellets were thawed and resuspended at 10 mL/g cells in lysis buffer containing 50 mM tris pH 7.6, 300 mM NaCl, 0.1% 3-[(3-cholamidopropyl)dimethylammonio]-1-propanesulfonate (CHAPS), 5% glycerol, and 2 mM β-mercaptoethanol. Cell suspensions were then sonicated, filtered through cheesecloth, and passed three times through a microfluidizer at 18,000 pounds/in^2. The resulting lysates were centrifuged at 15500 rpm for 45 minutes and supernatants were loaded onto a HisTrap HP column (GE Lifesciences) pre-equilibrated with five volumes of Ni buffer A (50 mM tris pH 7.6, 300 mM NaCl, 0.1% CHAPS, 5% glycerol, 2 mM β-mercaptoethanol, 50 mM imidazole-HCl). Proteins were eluted with a 0-100% gradient of Ni buffer A plus 500 mM imidazole-HCl and fractions were collected and pooled. The HisTrap pool was diluted 1:10 with SP-A buffer (50 mM tris pH 7.0, 10% glycerol, 2 mM dithiothreitol (DTT)) and loaded onto a HiTrap SP-HP column (GE Lifesciences) equilibrated with SP-A buffer. NS3 protease was eluted with a 0-100% SP-B buffer (SP-A buffer plus 1 M NaCl) gradient. Concentrated pools of NS3-containing SP fractions were aliquoted, snap frozen in liquid nitrogen and stored at −80° C.
Purified NS3 protease domain (amino acids 1-181) of the genotype 1b and 3a virus were generated as above.
Reactions were run at room temperature in buffer consisting of 50 mM HEPES, 40% glycerol, 0.05% Triton X-100, 10 mM DTT, and 10% DMSO. The final assay solutions contained 50 pM NS3 genotype 1b protease or 200 pM genotype 3a protease, 20 μM NS4A peptide, and 4 μM substrate (genotype 1 b) or 2 μM substrate (genotype 3a). Inhibitor concentrations varied from 100 nM to 5 pM in 3-fold dilutions, and no-inhibitor controls were included.
Compound dilutions were made in DMSO at 20× final concentration. Reaction mixtures were prepared in 96-well assay plates. A solution of enzyme and NS4A peptide in assay buffer (25 μL volume with both reagents at 4× final concentration) was mixed with 45 μL assay buffer and 5 μL of either inhibitor or DMSO, and pre-incubated at room temperature for 1 hour. The reaction was started by addition of 25 μL substrate solution at 4× final concentration. Plates were mixed vigorously for 5-10 seconds and reactions were allowed to proceed for 90 minutes. fluorescence was measured every 30 s between 90 and 120 minutes reaction time using a Tecan InfiniTe M1000 or PerkinElmer Envision multimode plate reader with an excitation wavelength of 340 nm and an emission wavelength of 490 nm.
To determine the K, rates were plotted as a function of inhibitor concentration, and the data were fit with equation 1 (Morrison, J. F., Biochimica et Biophysica Acta 1969, 185, 269-286) to calculate Ki^app using GraphPad Prism 5.

CC[C@@H]1[C@@H]2CN(C(=O)[C@H](C(C)(C)C)NC(=O)O[C@@H]3C[C@H]3CCCCC(F)(F)c3nc4ccc(OC)cc4nc3O2)[C@@H]1C(=O)N[C@]1(C(=O)NS(=O)(=O)C2(C)CC2)C[C@H]1C(F)F [Example 17, (1aR,5S,8S,9S,10R,22aR)-5-tert-butyl-N-[(1R,2R)-2-(difluoromethyl)-1-{[(1-methylcyclopropyl)sulfonyl]carbamoyl}cyclopropyl]-9-ethyl-18,18-difluoro-14-methoxy-3,6-dioxo-1,1a,3,4,5,6,9,10,18,19,20,21,22,22a-tetradecahydro-8H-7,10-methanocyclopropa[18,19][1,10,3,6]dioxadiazacyclononadecino[11,12-b]quinoxaline-8-carboxamide] and COc1ccc2nc3c(nc2c1)O[C@H]1CN(C(=O)[C@H](C(C)(C)C)NC(=O)O[C@@H]2C[C@H]2CCCCC3(F)F)[C@H](C(=O)N[C@]2(C(=O)NS(=O)(=O)C3(C)CC3)C[C@H]2C(F)F)[C@@H]1C [Example 46, (1aR,5S,8S,9S,10R,22aR)-5-tert-butyl-N-[(1R,2R)-2-(difluoromethyl)-1-{[(1-methylcyclopropyl)sulfonyl]carbamoyl}cyclopropyl]-18,18-difluoro-14-methoxy-9-methyl-3,6-dioxo-1,1a,3,4,5,6,9,10,18,19,20,21,22,22a-tetradecahydro-8H-7,10-methanocyclopropa[18,19][1,10,3,6]dioxadiazacyclononadecino[11,12-b]quinoxaline-8-carboxamide] are within 1.5-fold of each other in Ki: 0.04 nM for the first, 0.03 nM for the second.

CC[C@@H]1[C@@H]2CN(C(=O)[C@H](C(C)(C)C)NC(=O)O[C@@H]3C[C@H]3CCCC3CC3c3nc4ccc(OC)cc4nc3O2)[C@@H]1C(=O)N[C@]1(C(=O)NS(=O)(=O)C2(C)CC2)C[C@H]1C(F)F (stereo partly drawn) [Example 36, (1aR,5S,8S,9S,10R,21aR)-5-tert-butyl-N-[(1R,2R)-2-(difluoromethyl)-1-{[(1-methylcyclopropyl)sulfonyl]carbamoyl}cyclopropyl]-9-ethyl-14-methoxy-3,6-dioxo-1a,3,4,5,6,9,10,17b,18,18a,19,20,21,21a-tetradecahydro-1H,8H-7,10-methanodicyclopropa[13,14:18,19][1,10,3,6]dioxadiazacyclononadecino[11,12-b]quinoxaline-8-carboxamide] and CCOc1ccc2nc3c(nc2c1)O[C@H]1CN(C(=O)[C@H](C(C)(C)C)NC(=O)O[C@@H]2C[C@H]2CCCCC3)[C@H](C(=O)N[C@]2(C(=O)NS(=O)(=O)C3(C)CC3)C[C@H]2C(F)F)[C@@H]1CC [Example 69, (1aR,5S,8S,9S,10R,22aR)-5-tert-butyl-N-[(1R,2R)-2-(difluoromethyl)-1-{[(1-methylcyclopropyl)sulfonyl]carbamoyl}cyclopropyl]-14-ethoxy-9-ethyl-3,6-dioxo-1,1a,3,4,5,6,9,10,18,19,20,21,22,22a-tetradecahydro-8H-7,10-methanocyclopropa[18,19][1,10,3,6]dioxadiazacyclononadecino[11,12-b]quinoxaline-8-carboxamide] are within 1.5-fold of each other in Ki: 0.1 nM for the first, 0.07 nM for the second.

CC[C@@H]1[C@@H]2CN(C(=O)[C@H](C(C)(C)C)NC(=O)O[C@]3(C)CCC[C@H]3CCCCCc3nc4ccc(OC)cc4nc3O2)[C@@H]1C(=O)N[C@]1(C(=O)NS(=O)(=O)C2(C)CC2)C[C@H]1C(F)F [Example 39, (3aR,7S,10S,11S,12R,24aR)-7-tert-butyl-N-[(1R,2R)-2-(difluoromethyl)-1-{[(1-methylcyclopropyl)sulfonyl]carbamoyl}cyclopropyl]-11-ethyl-16-methoxy-3a-methyl-5,8-dioxo-1,2,3,3a,5,6,7,8,11,12,20,21,22,23,24,24a-hexadecahydro-10H-9,12-methanocyclopenta[18,19][1,10,3,6]dioxadiazacyclononadecino[11,12-b]quinoxaline-10-carboxamide] and CC[C@]12C[C@@H]1CCCCCc1nc3ccc(OC)cc3nc1O[C@H]1CN(C(=O)[C@H](C(C)(C)C)NC(=O)O2)[C@H](C(=O)N[C@]2(C(=O)NS(=O)(=O)C3(C)CC3)C[C@H]2C(F)F)[C@@H]1C [Example 42, (1aS,5S,8S,9S,10R,22aS)-5-tert-butyl-N-[(1R,2R)-2-(difluoromethyl)-1-{[(1-methylcyclopropyl)sulfonyl]carbamoyl}cyclopropyl]-1a-ethyl-14-methoxy-9-methyl-3,6-dioxo-1,1a,3,4,5,6,9,10,18,19,20,21,22,22a-tetradecahydro-8H-7,10-methanocyclopropa[18,19][1,10,3,6]dioxadiazacyclononadecino[11,12-b]quinoxaline-8-carboxamide] are within 1.5-fold of each other in Ki: 0.08 nM for the first, 0.1 nM for the second.

CC[C@@]12C[C@H]1CCCCCc1nc3ccc(OC)cc3nc1O[C@H]1CN(C(=O)[C@H](C(C)(C)C)NC(=O)O2)[C@H](C(=O)N[C@]2(C(=O)NS(=O)(=O)C3(C)CC3)C[C@H]2C(F)F)[C@@H]1C [Example 43, (1aR,5S,8S,9S,10R,22aR)-5-tert-butyl-N-[(1R,2R)-2-(difluoromethyl)-1-{[(1-methylcyclopropyl)sulfonyl]carbamoyl}cyclopropyl]-1a-ethyl-14-methoxy-9-methyl-3,6-dioxo-1,1a,3,4,5,6,9,10,18,19,20,21,22,22a-tetradecahydro-8H-7,10-methanocyclopropa[18,19][1,10,3,6]dioxadiazacyclononadecino[11,12-b]quinoxaline-8-carboxamide] gave a Ki of 0.06 nM.

Same assay, conditions: NS3 protease genotype 1b, 50 pM enzyme, 20 μM NS4A peptide, 4 μM substrate; read-out: Ki 1B

CC[C@@H]1[C@@H]2CN(C(=O)[C@H](C(C)(C)C)NC(=O)O[C@]3(C(F)(F)F)CCCC3CCCCCc3nc4ccc(OC)cc4nc3O2)[C@@H]1C(=O)N[C@]1(C(=O)NS(=O)(=O)C2(C)CC2)C[C@H]1C(F)F (stereo partly drawn) [Example 9, (7S,10S,11S,12R)-7-tert-butyl-N-[(1R,2R)-2-(difluoromethyl)-1-{[(1-methylcyclopropyl)sulfonyl]carbamoyl}cyclopropyl]-11-ethyl-16-methoxy-5,8-dioxo-3aR-(trifluoromethyl)-1,2,3,3a,5,6,7,8,11,12,20,21,22,23,24,24a-hexadecahydro-10H-9,12-methanocyclopenta[18,19][1,10,3,6]dioxadiazacyclononadecino[11,12-b]quinoxaline-10-carboxamide] and CC[C@@H]1[C@@H]2CN(C(=O)[C@H](C(C)(C)C)NC(=O)O[C@@]3(C(F)(F)F)CCCC3CCCCCc3nc4ccc(OC)cc4nc3O2)[C@@H]1C(=O)N[C@]1(C(=O)NS(=O)(=O)C2(C)CC2)C[C@H]1C(F)F (stereo partly drawn) [Example 10, (7S,10S,11S,12R)-7-tert-butyl-N-[(1R,2R)-2-(difluoromethyl)-1-{[(1-methylcyclopropyl)sulfonyl]carbamoyl}cyclopropyl]-11-ethyl-16-methoxy-5,8-dioxo-3aS-(trifluoromethyl)-1,2,3,3a,5,6,7,8,11,12,20,21,22,23,24,24a-hexadecahydro-10H-9,12-methanocyclopenta[18,19][1,10,3,6]dioxadiazacyclononadecino[11,12-b]quinoxaline-10-carboxamide] are within 1.5-fold of each other in Ki: 0.15 nM for the first, 0.16 nM for the second.
